# Measurements taken from patent US20220184084A1, “COMPOSITIONS AND METHODS FOR TREATING CUSHING'S DISEASE” (The Regents of the University of California, priority 2019, published 2022).
# Like-named read-outs stand apart in the source and are kept apart here. Starred links: 1 amine or outer side, 2 acyl side, 3 side chain; linkers in the order of their positions; H or OH if unused. Non-standard residues stand in square brackets, D forms with d. Residues, ends and D or L forms follow the SMILES beside them. Groups on a side chain read outwards from the residue. *: point of attachment. Ethylenediamine = C(CN[*:2])N[*:1]; Hyp = O=C(O)[C@@H]1C[C@@H](O)CN1; Phg = N[C@H](C(=O)O)c1ccccc1; CO = O=C([*:1])[*:2]; Bn = c1ccc(C*)cc1
# Key:
# [1] = background statement; cited from earlier work
# AtT20 cells [2] = experiment: Nuclei staining (Hoechst 33342 dye), screen of kinase inhibitor library; assay type: cell-based, murine; settings: Mus musculus; for inhibition at 1 µM / inhibition at 10 µM: read-out: Nuclei Inhibition (%)
# Experimental: This plate was incubated in a Cytomat 6000 sealed with gas permeable polyurethane film (USA Scientific) and imaged on ImageXpress^XL (Molecular Devices). All these instruments are integrated on a Beckman Coulter SAMI automation platform which tracks timing to ensure accuracy and consistency of all steps.
# AtT20 cells [3] = experiment: ACTH AlphaLISA assay, screen of kinase inhibitor library; assay type: cell-based, murine; settings: Mus musculus, read-out: ACTH Inhibition (%)
# Experimental: The latter mouse antibody is then trapped by an anti-mouse IgG (Fc specific) conjugated to acceptor beads, bringing the donor and acceptor beads into close proximity. […] Conversely if the cell SN ACTH is reduced following treatment with an ACTH inhibitor, the Alpha signal is restored.
# One column (#1) with vehicle treatment only, and two cell-free columns (#23 & 24) were included as AlphaLISA signal negative and positive controls respectively to monitor assay performance.
# Thereafter, 2 μL of cell culture supernatant was transferred from the black culture plate into a white low volume assay plate (Corning) using Vprep (Agilent) equipped with Velocity 11 Biocel 1800 (Agilent). 1 μL of biotinylated ACTH peptide solution (AnaSpec) and 1 μL of anti-ACTH antibody solution (EMD) is added sequentially into the low volume assay plate using AquaMax DW4 (Molecular Devices) Following a 1 h incubation, 1 μL donor and acceptor beads (PerkinElmer) were added to the assay plate using ELx405 (BioTek). Optical seals (Sigma) are used to minimize assay evaporation during the subsequent 2 h incubation. The assay plate is then transferred by a Thermo Spinnaker robotic arm to Envision (PerkinElmer) for AlphaLISA signal detection.
# AtT20 cells [4] = experiment: AtT20 cell proliferation IC50 (CellTiter-Glo); assay type: cell-based, murine; settings: read-out: IC50 for proliferation inhibition
# Experimental: The IC50 values were calculated using sigmoidal dose-response curve (GraphPad Prism).
# [5] = system: AtT20 cells stably transfected with POMC promoter driven luciferase; experiment: POMC promoter-driven luciferase assay (POMC-Luc); assay type: cell-based, murine; settings: 1 day
# Text: Using a POMC promoter-driven luciferase assay, the direct actions of the aforementioned compounds on POMC transcription was examined.
# AtT20 cells [6] = experiment: Relative proliferation rate, panobinostat and buparlisib alone and combined; assay type: cell-based, murine; settings: Veh 1.0±0.06
# Experimental: FIG. 6G depicts the results of a study wherein AtT20 cells were treated with panobinostat and burparlisib simultaneously to detect the effects on cell proliferation.
# AtT20 cells [7] = experiment: ACTH secretion in AtT20 cells (ELISA); assay type: cell-based, murine; settings: for EC50: Mus musculus, read-out: EC50 for ACTH secretion inhibition
# Experimental: The EC50 for ACTH secretion inhibition were calculated using a sigmoidal dose-response curve (GraphPad Prism).
# FIG. 6F depicts the results of a study wherein AtT20 cells were treated with panobinostat and burparlisib simultaneously to detect the effects on ACTH secretion.
# Nurr1 = Nurr1 interaction with HDACs and Nurr1 phosphorylation by immunoprecipitation; assay type: cell-based
# Text: FIG. 7F depicts the interactions between Nurr1, HDACs, and Nurr1 phosphorylation, as detected by immunoprecipitation.
# [8] = system: human corticotroph tumor primary cultures; experiment: ACTH secretion in human corticotroph tumor primary culture (ELISA); assay type: cell-based; settings: Vehicle 3.7±0.2
# AtT20 cells [9] = experiment: Histone acetylation (H3K9) and AKT pathway activation in AtT20 cells; assay type: cell-based, murine; settings: 3 days
# AtT20 cells [10] = experiment: Expression of POMC regulators (Nurr1, Nur77, LXRα, GR) after treatment; assay type: cell-based, murine
# Text: Accordingly, the expressions of several nuclear receptors, known as POMC positive and negative regulators, including Nurr1 (NR4A2), Nur77 (NR4A1), LXRα (NR1H3), and GR (NR3C1), were examined.
# AtT20 cells [11] = experiment: c-Myc and cell cycle inhibitor mRNA by real time PCR; assay type: cell-based; settings: murine corticotroph tumor cells, 5 nM, 24 h
# [12] = system: human corticotroph tumor primary cultures; experiment: Proliferation of human corticotroph tumor primary cultures (CellTiter-Glo); assay type: cell-based; settings: two human primary corticotroph tumor cultures, 3 days, read-out: IC50 anti-proliferative effect
# AtT20 cells [13] = experiment: POMC mRNA expression in AtT20 cells by real time PCR; assay type: cell-based, murine; settings: 20 nM to 1.25 nM, 24 h, RT-PCR
# Experimental: The POMC mRNA expression […] values were determined by real time PCR.
# FIG. 6I depicts the results of a study wherein AtT20 cells were treated with panobinostat and burparlisib simultaneously to detect the effects on POMC mRNA expression.
# [14] = system: AtT20 cells inoculated into athymic nude mice; experiment: Xenograft model of Cushing disease; assay type: in vivo, athymic nude mice (Nu/J strain); settings: 300 mg/kg oral gavage daily, 18 days
# Experimental: Animal bodyweight was recorded daily. […] Tumor size was recorded daily. […] Tumor size was measured post euthanizer. […] Tumor weight was measured post euthanizer. […] Blood samples were collected by cardiac puncture and plasma ACTH levels were measured by ELISA. […] Blood samples were collected by cardiac puncture and plasma corticosterone levels were measured by ELISA. […] AtT20 cells (2×10^5/animal) were injected into the hind flank region of athymic nude mice (Nu/J strain from Jackson lab). […] During 18-days of CUDC-907-treatment, animal bodyweight (FIG. 4A) and tumor sizes (FIG. 4B) were measured daily. Upon experiment completion, the animals were euthanized and tumors were harvested, and weighed. Blood samples were collected by cardiac puncture.
# [15] = system: murine corticotroph tumor Caspase-3/7; experiment: Caspase-Glo3/7 assay; assay type: cell-based; settings: 24 hours
# [16] = 72 h, 1 μM, AtT20 cells, 3 days
# [17] = 72 h, 10 μM, AtT20 cells, 3 days
# [18] = 72 h, 100 nM, AtT20 cells, 3 days
# [19] = Mus musculus, AtT20, 72 h, 3 days
# [20] = Mus musculus, AtT20, 72 h, 3 day-treatment
smiles,measurement,setting,value
NCCCC[C@@H]1NC(=O)[C@@H](Cc2c[nH]c3ccccc23)NC(=O)[C@H](c2ccccc2)NC(=O)[C@@H]2C[C@@H](OC(=O)NCCN)CN2C(=O)[C@H](Cc2ccccc2)NC(=O)[C@H](Cc2ccc(OCc3ccccc3)cc2)NC1=O [pasireotide] (cyclo([Hyp]([CO-Ethylenediamine])[Phg][dW]KY(Bn)F)),patients in whom the drug causes diabetes,[1],approximately 50%
CCc1cnn2c(NCc3ccc[n+]([O-])c3)cc(N3CCCC[C@H]3CCO)nc12 [Dinaciclib (SCH727965)],inhibition at 0.1 µM,"AtT20 cells [2]; 72 h, AtT20 cells, 3 days",92%
same,inhibition at 1 µM,AtT20 cells [2]; [16],98.3%
same,inhibition at 10 µM,AtT20 cells [2]; [17],98%
same,inhibition at 0.1 µM,AtT20 cells [3]; [18],58.1%
same,inhibition at 1 µM,AtT20 cells [3]; [16],77.3%
same,inhibition at 10 µM,AtT20 cells [3]; [17],69.2%
CS(=O)(=O)N1CCN(Cc2cc3nc(-c4cccc5[nH]ncc45)nc(N4CCOCC4)c3s2)CC1 [pictilisib],IC50,AtT20 cells [4]; [19],800 nM
same,effect on POMC transcription,[5],increased POMC transcription at higher doses
Cc1nc(Nc2n[nH]c3c2CN(C(=O)N[C@H](CN(C)C)c2ccccc2)C3(C)C)c2sccc2n1 [PF-3758309],inhibition at 0.1 µM,"AtT20 cells [2]; 72 h, AtT20 cells, 3 days",91.5%
same,inhibition at 1 µM,AtT20 cells [2]; [16],95.6%
same,inhibition at 10 µM,AtT20 cells [2]; [17],95.2%
same,inhibition at 0.1 µM,AtT20 cells [3]; [18],70.4%
same,inhibition at 1 µM,AtT20 cells [3]; [16],70.2%
same,inhibition at 10 µM,AtT20 cells [3]; [17],77.5%
Nc1cc(C(F)(F)F)c(-c2cc(N3CCOCC3)nc(N3CCOCC3)n2)cn1 [buparlisib],IC50,AtT20 cells [4]; [19],500 nM
same,Relative Proliferation Rate,AtT20 cells [6]; buparlisib 62.5 nM alone,1.0±0.06
same,effect on ACTH secretion,AtT20 cells [7]; buparlisib alone,did not inhibit ACTH secretion
same,effect on POMC transcription,[5],increased POMC transcription at higher doses
Cc1[nH]c2ccccc2c1CCNCc1ccc(/C=C/C(=O)NO)cc1 [panobinostat],IC50,AtT20 cells [4]; [20],20 nM
same,Relative Proliferation Rate,AtT20 cells [6]; panobinostat 5 nM alone,1.0±0.01
same,Relative Proliferation Rate,AtT20 cells [6]; panobinostat 10 nM alone,0.8±0.005
same,EC50,AtT20 cells [7],4 nM
same,ACTH secretion,"AtT20 cells [7]; panobinostat 5 nM alone, Veh 39.6±2",28.7 ± 0.1 ng/mL
same,ACTH secretion,"AtT20 cells [7]; panobinostat 10 nM alone, Veh 39.6±2",13.6 ± 1 ng/mL
same,inhibition of ACTH secretion,AtT20 cells [7]; panobinostat 5 and 10 nM alone,up to 66%
COc1ccc(-c2nc(N3CCOCC3)c3sc(CN(C)c4ncc(C(=O)NO)cn4)cc3n2)cn1 [CUDC-907],"Nurr1 interaction with HDAC-1, 2, 3, but not HDAC10",Nurr1,unaffected
same,Nurr1 serine/threonine phosphorylation levels,Nurr1,dramatically inhibited
same,ACTH secretion,[8],1.9 ± 0.001 ng/mL
same,AKT activation and downstream target 4E-BPI,AtT20 cells [9],blocked
same,histone acetylation Ac-H3-K9,AtT20 cells [9],elevated histone acetylation
same,Nurr1 expression,"AtT20 cells [10]; 1.25 nM, 24 h",reduction in Nurr1 expression
same,LXRα expression,"AtT20 cells [10]; 5 and 10 nM, 24 h",reductions
same,Nur77 expression,"AtT20 cells [10]; 5 and 10 nM, 24 h",reductions
same,Nurr1 protein expression,AtT20 cells [10]; 6 h-treatment,dramatic inhibition
same,GR expression,AtT20 cells [10]; 24 h,minor effects
same,Nurr1 mRNA expression,AtT20 cells [10]; real time PCR,inhibition of Nurr1 mRNA expression
same,c-Myc mRNA expression,AtT20 cells [11],increased
same,inhibition at 0.1 µM,"AtT20 cells [2]; 72 h, AtT20 cells, 3 days",90.1%
same,inhibition at 1 µM,AtT20 cells [2]; [16],99.2%
same,inhibition at 10 µM,AtT20 cells [2]; [17],99.3%
same,IC50,AtT20 cells [4]; 3 day-treatment,5.1 nM
same,IC50,AtT20 cells [4]; [20],5 nM
same,IC50,"[12]; Homo sapiens, 72 h",3 nM
same,IC50,[12],5 nM
same,effect on POMC mRNA expression,AtT20 cells [13],potent reduction in POMC mRNA expression
same,reduction of plasma ACTH level,[14]; vs controls,77%
same,reduction of plasma corticosterone level,[14]; vs controls,85%
same,reduction in tumor size,[14]; vs vehicle,~35%
same,reduction in tumor weight,[14]; vs vehicle,44%
same,tumor weight,[14]; Control 0.098±0.02,0.04±0.006 gram
same,tumor volume,[14]; Control 0.17±0.05,0.065±0.02 cm^3
same,Plasma corticosterone,[14]; Control 180±87,27 ± 4.66 ng/mL
same,Plasma ACTH,[14]; Control 206.1±27.2,47.4 ± 7.3 pg/mL
same,reduction of ACTH secretion,AtT20 cells [7]; 1.25 nM,59%
same,ACTH secretion,"AtT20 cells [7]; 1.25 nM, 24 h, Vehicle 30±19",12 ± 2.4 ng/mL
same,ACTH secretion,"AtT20 cells [7]; 2.5 nM, 24 h, Vehicle 30±19",12 ± 5.7 ng/mL
same,EC50,AtT20 cells [7],1 nM
same,ACTH secretion,"AtT20 cells [7]; concentration not given, 24 h, Vehicle 30±19",15 ± 2.2 ng/mL
same,activity of caspase-3 and -7,[15],increasing the activity
same,inhibition at 0.1 µM,AtT20 cells [3]; [18],84.7%
same,inhibition at 1 µM,AtT20 cells [3]; [16],80.1%
same,inhibition at 10 µM,AtT20 cells [3]; [17],80%
same,EC50,"[5]; Mus musculus, 24 h, read-out: EC50 for POMC transcription inhibition",0.5 nM
COc1ccc(-c2ccc3ncc4c(c3c2)n(-c2ccc(N3CCNCC3)c(C(F)(F)F)c2)c(=O)n4C)cn1 [BGT226 (NVP-BGT226)],inhibition at 0.1 µM,"AtT20 cells [2]; 72 h, AtT20 cells, 3 days",94.3%
same,inhibition at 1 µM,AtT20 cells [2]; [16],99%
same,inhibition at 10 µM,AtT20 cells [2]; [17],95.4%
same,inhibition at 0.1 µM,AtT20 cells [3]; [18],57.5%
same,inhibition at 1 µM,AtT20 cells [3]; [16],86.3%
same,inhibition at 10 µM,AtT20 cells [3]; [17],88.2%
CC[C@@H]1C(=O)N(C)c2cnc(Nc3ccc(C(=O)NC4CCN(C)CC4)cc3OC)nc2N1C1CCCC1 [BI 2536],inhibition at 1 µM,"AtT20 cells [2]; AtT20, 72 h",92.3%
same,inhibition at 10 µM,"AtT20 cells [2]; AtT20, 72 h",94%
same,inhibition at 0.1 µM,"AtT20 cells [3]; AtT20, 72 h",54.9%
same,inhibition at 1 µM,"AtT20 cells [3]; AtT20, 72 h",82%
same,inhibition at 10 µM,"AtT20 cells [3]; AtT20, 72 h",77.7%
